Test results: PMC12396409, “Screening and hit evaluation of a microbial metabolite library against the pathogenic Plasmodium falciparum and Toxoplasma gondii parasites” (International Journal for Parasitology: Drugs and Drug …, 2025)
Read-outs that look alike come from different tables or passages of the source. Where a SMILES comes first, the peptide text is derived from it. [ ]: non-standard residue; d: D form. GABA = NCCCC(=O)O

Experiments:
[1] = test system: P. falciparum 3D7 parasites; experiment: P. falciparum growth inhibition assay, 1-cycle (72 h treatment), SYBR DNA staining (library screen at 2 μg/mL and dose-response); type: cell-based, Plasmodium falciparum; settings: for activity at 2 µg/mL: Plasmodium falciparum, 3D7, 72 h
[2] = test system: P. falciparum 3D7 parasites; experiment: P. falciparum growth inhibition assay, 2-cycle (120 h treatment), delayed-death screen and dose-response; type: cell-based, Plasmodium falciparum; settings: for activity at 2 µg/mL: Plasmodium falciparum, 3D7, 120 h
[3] = test system: T. gondii RH strain (RH-Tub-eYFP) tachyzoites; experiment: microbe, parasite or virus in culture; type: cell-based, Toxoplasma gondii; settings: for percent parasite growth at 2 µg/mL: Toxoplasma gondii
[4] = library screen at 2 μg/mL, 72 h, % growth, replicate 1
[5] = library screen at 2 μg/mL, 72 h, % growth, replicate 2
[6] = library screen at 2 μg/mL, 120 h, % growth, replicate 1
[7] = library screen at 2 μg/mL, 120 h, % growth, replicate 2
[8] = P. falciparum, 72 h, screen at 2 μg/mL, replicate 1
[9] = P. falciparum, 72 h, screen at 2 μg/mL, replicate 2
[10] = P. falciparum, 120 h, screen at 2 μg/mL, replicate 1
[11] = P. falciparum, 120 h, screen at 2 μg/mL, replicate 2
[12] = T. gondii, 72 h, screen at 2 μg/mL, replicate 1
[13] = T. gondii, 72 h, screen at 2 μg/mL, replicate 2
[14] = P. falciparum 3D7, 72 h, library screen at 2 μg/mL, % growth, replicate 1
[15] = P. falciparum 3D7, 72 h, library screen at 2 μg/mL, % growth, replicate 2
[16] = P. falciparum 3D7, 120 h, library screen at 2 μg/mL, % growth, replicate 1
[17] = P. falciparum 3D7, 120 h, library screen at 2 μg/mL, % growth, replicate 2
[18] = T. gondii RH, 72 h, library screen at 2 μg/mL, % growth, replicate 1
[19] = T. gondii RH, 72 h, library screen at 2 μg/mL, % growth, replicate 2
[20] = P. falciparum, 72 h, screen at 2 μg/mL, replicate 1, read-out: Pf_72h_%Growth_Rep1
[21] = P. falciparum, 72 h, screen at 2 μg/mL, replicate 2, read-out: Pf_72h_%Growth_Rep2
[22] = P. falciparum, 120 h, screen at 2 μg/mL, replicate 1, read-out: Pf_120h_%Growth_Rep1
[23] = P. falciparum, 120 h, screen at 2 μg/mL, replicate 2, read-out: Pf_120h_%Growth_Rep2
[24] = 72 h, T. gondii, 72 h, screen at 2 μg/mL, replicate 1, read-out: Tg_72h_%Growth_Rep1
[25] = 72 h, T. gondii, 72 h, screen at 2 μg/mL, replicate 2, read-out: Tg_72h_%Growth_Rep2

## C/C=C/[C@@H]1C=C[C@@H]2C[C@H](C)CC[C@H]2[C@]1(C)/C(O)=C1/C(=O)[C@@H](CO)N(C)C1=O [Epiequisetin]
[1]; [4]
  Pf_72h_%Growth_Rep1: 86.43%
[1]; [5]
  Pf_72h_%Growth_Rep2: 84.23%
[2]; [6]
  Pf_120h_%Growth_Rep1: 86.15%
[2]; [7]
  Pf_120h_%Growth_Rep2: 82.07%
[3]; [4]
  Tg_72h_%Growth_Rep1: 129.84%
[3]; [5]
  Tg_72h_%Growth_Rep2: 98.00%

## C=C(C)[C@H](C)CC[C@](C)(O)[C@H]1CC[C@]2(C)[C@@H]1CC[C@@H]1[C@@]3(C)CC[C@H](O)C(C)(C)[C@@H]3CC[C@]12C [Carnaubadiol]
[1]; [8]
  Pf_72h_%Growth_Rep1: 84.27%
[1]; [9]
  Pf_72h_%Growth_Rep2: 81.18%
[2]; [10]
  Pf_120h_%Growth_Rep1: 92.23%
[2]; [11]
  Pf_120h_%Growth_Rep2: 87.62%
[3]; [12]
  Tg_72h_%Growth_Rep1: 149.01%
[3]; [13]
  Tg_72h_%Growth_Rep2: 97.97%

## CC(C)C[C@@H]1NC(=O)[C@@H](C(C)C)NC(=O)[C@@H](C)NC(=O)CCCNC(=O)[C@@H](Cc2c[nH]c3ccccc23)NC(=O)[C@@H](C)NC(=O)[C@@H](C(C)C)NC1=O [Unguisin B] (cyclo([GABA][dA][dV]L[dV][dA][dW]))
[1]; [8]
  Pf_72h_%Growth_Rep1: 89.12%
[1]; [9]
  Pf_72h_%Growth_Rep2: 119.76%
[2]; [10]
  Pf_120h_%Growth_Rep1: 112.33%
[2]; [11]
  Pf_120h_%Growth_Rep2: 102.07%
[3]; [12]
  Tg_72h_%Growth_Rep1: 121.22%
[3]; [13]
  Tg_72h_%Growth_Rep2: 81.61%

## COc1cc([C@H]2[C@@]3(O)[C@H](O)[C@H]4C[C@]2(O)[C@](O)(C(=O)O4)[C@H]3C(=O)c2ccccc2)oc(=O)c1 [Enterocin]
[1]; [4]
  Pf_72h_%Growth_Rep1: 81.25%
[1]; [5]
  Pf_72h_%Growth_Rep2: 72.68%
[2]; [6]
  Pf_120h_%Growth_Rep1: 80.40%
[2]; [7]
  Pf_120h_%Growth_Rep2: 114.14%
[3]; [4]
  Tg_72h_%Growth_Rep1: 101.62%
[3]; [5]
  Tg_72h_%Growth_Rep2: 91.26%

## COc1cc(O)c2c(c1)C=CCC(O)C(O)C(=O)C=CCC(C)OC2=O (stereo not drawn) [BIA-L1160]
[1]; [14]
  Pf_72h_%Growth_Rep1: 82.21%
[1]; [15]
  Pf_72h_%Growth_Rep2: 92.24%
[2]; [16]
  Pf_120h_%Growth_Rep1: 96.72%
[2]; [17]
  Pf_120h_%Growth_Rep2: 110.83%
[3]; [18]
  Tg_72h_%Growth_Rep1: 102.73%
[3]; [19]
  Tg_72h_%Growth_Rep2: 85.36%

## Nc1ncnc2c1ccn2[C@@H]1O[C@H](CO)[C@@H](O)[C@H]1O [Tubercidin]
[1]; [20]
  activity at 2 µg/mL: 7.17%
[1]; [21]
  activity at 2 µg/mL: 7.42%
[2]; [22]
  activity at 2 µg/mL: 40.9%
[2]; [23]
  activity at 2 µg/mL: 12.8%
[3]; [24]
  percent parasite growth at 2 µg/mL: 3.92%
[3]; [25]
  percent parasite growth at 2 µg/mL: 3.05%

## C[C@H]1CCC/C=C/[C@@H]2C[C@H](O)C[C@H]2[C@H](O)/C=C/C(=O)O1 [Brefeldin A]
[1]; [20]
  activity at 2 µg/mL: 4.33%
[1]; [21]
  activity at 2 µg/mL: -0.69%
[2]; [22]
  activity at 2 µg/mL: 5.53%
[2]; [23]
  activity at 2 µg/mL: 2.87%
[3]; [24]
  percent parasite growth at 2 µg/mL: -1.55%
[3]; [25]
  percent parasite growth at 2 µg/mL: 0.61%

## Aflatoxin B1
[1]
  Pf_72h_%Growth_Rep1: 79.06%
  Pf_72h_%Growth_Rep2: 85.00%
[2]
  Pf_120h_%Growth_Rep1: 89.63%
  Pf_120h_%Growth_Rep2: 84.39%
[3]
  Tg_72h_%Growth_Rep1: 27.47%
  Tg_72h_%Growth_Rep2: 33.32%

## CC(=O)OCC12CC(O)C(C)=CC1OC1C(O)C(OC(C)=O)C2(C)C12CO2 (stereo not drawn) [BIA-N1931]
[1]; P. falciparum 3D7, 72 h, parasite screen at 2 μg/mL, % growth, replicate 1
  Pf_72h_%Growth_Rep1: 6.76%
[1]; P. falciparum 3D7, 72 h, parasite screen at 2 μg/mL, % growth, replicate 2
  Pf_72h_%Growth_Rep2: -0.85%
[2]; P. falciparum 3D7, 120 h, parasite screen at 2 μg/mL, % growth, replicate 1
  Pf_120h_%Growth_Rep1: 9.98%
[2]; P. falciparum 3D7, 120 h, parasite screen at 2 μg/mL, % growth, replicate 2
  Pf_120h_%Growth_Rep2: 3.84%
[3]; T. gondii, 72 h, parasite screen at 2 μg/mL, % growth, replicate 1
  Tg_72h_%Growth_Rep1: 0.58%
[3]; T. gondii, 72 h, parasite screen at 2 μg/mL, % growth, replicate 2
  Tg_72h_%Growth_Rep2: -0.09%

## O=c1cc(O)c2nccc3c4ccccc4n1c23 [BIA-H1963]
[1]; [14]
  Pf_72h_%Growth_Rep1: 88.88%
[1]; [15]
  Pf_72h_%Growth_Rep2: 124.49%
[2]; [16]
  Pf_120h_%Growth_Rep1: 105.89%
[2]; [17]
  Pf_120h_%Growth_Rep2: 107.63%
[3]; [18]
  Tg_72h_%Growth_Rep1: 127.63%
[3]; [19]
  Tg_72h_%Growth_Rep2: 85.33%
